Test results from patent US20170049688A1, “Herbal Combinations For Treating Psoriasis” (Sirbal Ltd., priority 2015, published 2017).
Read-outs that look alike come from different tables or passages of the source.

Tests used:
[1] = cited from earlier work
[2] = cited from earlier work; remark: listed apart in the source
[3] = cited from earlier work; remark: listed apart in the source
HT29 colon cancer cells = assay: Viability of HT29 tumor cells (PI staining); type: cell-based; details: 24-hour exposure
Description: (§1) In another example, the effect of CXCR4 antagonists on the survival of NB4, HL60, Jurkat leukemic cells and HT29 colon cancer and prostate tumor cells was examined.
(§2) Following the incubation, the cells were stained with propidium iodide (PI) (Sigma, St. Louis, Mo.) and percent of viable PI-negative cells in culture was determined by FACScalibur analysis (Becton Dickinson Immunocytometry Systems), using CellQuest software.
as §2

murine melanoma = details: 5 mg/kg; cited from earlier work
mice = details: cited from earlier work
[4] = tested on: mammary carcinoma of mice; details: intraperitoneal, 75 mg/kg; cited from earlier work
[5] = tested on: NB4, HL60, Jurkat leukemic cells; assay: Viability of leukemic cells (PI staining, FACS); type: cell-based, human; details: 24 hours
Description: as §1, §2, §2

thymidine kinase = details: colon cancer cells; cited from earlier work
thymidylate synthase = details: colon cancer cells; cited from earlier work
[6] = tested on: hemolytic plaque forming cells in the spleens of mice; details: cited from earlier work
[7] = tested on: central stimulation in mice and rats; details: oral administration; cited from earlier work

O=C1c2cc(CO)cc(O)c2C(=O)c2c(OC3OC(CO)C(O)C(O)C3O)cccc21 (centres unmarked) [Aloe-emodin-8-glycoside]
ED50 (oral purgative) [1]: 71.6 mg/kg

O=C1c2cccc(O)c2C(=O)c2c(O)cc(CO)cc21 [Aloe-emodin]
half-life [2]: about 78 min

CC1=CCC(C(C)(C)O)CC1 (stereo not drawn) [Alpha-terpineol]
half life [2]: about 1.245 hours

OCC1=C[C@@H](O)[C@@H]2C=CO[C@@H](O[C@@H]3O[C@H](CO)[C@@H](O)[C@H](O)[C@H]3O)[C@H]12 [Aucubin]
half life [2]: about 42.5 minutes

Cc1ccc(C(C)C)cc1O [Carvacrol]
half life [2]: about 1.29 hours

CCC(=O)O[C@]1(C(=O)CCl)[C@@H](C)C[C@H]2[C@@H]3CCC4=CC(=O)C=C[C@]4(C)[C@@]3(F)[C@@H](O)C[C@@]21C [Clobetasol propionate]
solubility in water [3]: insoluble in water

C[C@H]1O[C@@H](O[C@H]2[C@@H](O)C[C@H](O[C@H]3[C@@H](O)C[C@H](O[C@H]4CC[C@@]5(C)[C@H](CC[C@@H]6[C@@H]5C[C@@H](O)[C@]5(C)[C@@H](C7=CC(=O)OC7)CC[C@]65O)C4)O[C@@H]3C)O[C@@H]2C)C[C@H](O)[C@@H]1O [Digoxin, reference compound]
effect on HT29 tumor cells (HT29 colon cancer cells): partial however significant effect
half life [2]: around 36 hours

Cc1cc(O)c2c(c1)C(=O)c1cc(O)cc(O)c1C2=O [Emodin]
effect on HT29 tumor cells (HT29 colon cancer cells): partial however significant effect
inhibition rate against murine melanoma (murine melanoma): 73%
LD50 (mice): 0.56 g/k″g
ED50 (oral purgative) [1]: >500 mg/kg
inhibition against mammary carcinoma [4]: 45%
half-life [2]: approximately 227 min
concentrations inhibiting the growth of leukemic cells [5]: more than 5 microgram/ml

CC(C)=CCC/C(C)=C/CO [Geraniol]
reduction of thymidine kinase expression (thymidine kinase): 2 fold
reduction of thymidylate synthase expression (thymidylate synthase): 2 fold

O=c1cc(-c2ccc(O)c(O)c2)oc2cc(O)cc(O)c12 [Luteolin]
half life [2]: about 1.2 hours

COc1cc(O)c2c(c1)C(=O)c1cc(C)cc(O)c1C2=O [Physcion]
ED50 (oral purgative) [1]: >500 mg/kg

COc1ccc(/C=C/c2cc(O)cc(O[C@@H]3O[C@H](CO)[C@@H](O)[C@H](O)[C@H]3O)c2)cc1O [Rhapontin]
half life [2]: about 23.5 minutes

O=C(O)c1cc(O)c2c(c1)C(=O)c1cccc(O[C@@H]3O[C@H](CO)[C@@H](O)[C@H](O)[C@H]3O)c1C2=O [Rhein-8-glucoside]
ED50 (oral purgative) [1]: 20.0 mg/kg

O=C(O)c1cc(O)c2c(c1)C(=O)c1cccc(O)c1C2=O [Rhein]
half-life [2]: about 205 min

O=C(O)c1cc(O)c2c(c1)[C@H]([C@H]1c3cc(C(=O)O)cc(O)c3C(=O)c3c(O[C@@H]4O[C@H](CO)[C@@H](O)[C@H](O)[C@H]4O)cccc31)c1cccc(O[C@@H]3O[C@H](CO)[C@@H](O)[C@H](O)[C@H]3O)c1C2=O [Sennoside A]
ED50 (oral purgative) [1]: 13.5 mg/kg

O=C(O)c1cc(O)c2c(c1)[C@@H]([C@H]1c3cc(C(=O)O)cc(O)c3C(=O)c3c(O[C@@H]4O[C@H](CO)[C@@H](O)[C@H](O)[C@H]4O)cccc31)c1cccc(O[C@@H]3O[C@H](CO)[C@@H](O)[C@H](O)[C@H]3O)c1C2=O [Sennoside B]
ED50 (oral purgative) [1]: 13.9 mg/kg

O=C(O)c1cc(O)c2c(c1)[C@H]([C@H]1c3cc(CO)cc(O)c3C(=O)c3c(O[C@@H]4O[C@H](CO)[C@@H](O)[C@H](O)[C@H]4O)cccc31)c1cccc(O[C@@H]3O[C@H](CO)[C@@H](O)[C@H](O)[C@H]3O)c1C2=O [Sennoside C]
ED50 (oral purgative) [1]: 13.3 mg/kg

O=C(O)c1cc(O)c2c(c1)[C@H]([C@@H]1c3cc(CO)cc(O)c3C(=O)c3c(O[C@@H]4O[C@H](CO)[C@@H](O)[C@H](O)[C@H]4O)cccc31)c1cccc(O[C@@H]3O[C@H](CO)[C@@H](O)[C@H](O)[C@H]3O)c1C2=O [Sennoside D]
ED50 (oral purgative) [1]: 13.8 mg/kg

O=C(O)C(=O)OC[C@H]1O[C@@H](Oc2cccc3c2C(=O)c2c(O)cc(C(=O)O)cc2[C@@H]3[C@H]2c3cc(C(=O)O)cc(O)c3C(=O)c3c(O[C@@H]4O[C@H](CO)[C@@H](O)[C@H](O)[C@H]4O)cccc32)[C@H](O)[C@@H](O)[C@@H]1O [Sennoside E]
ED50 (oral purgative) [1]: 13.5 mg/kg

O=C(O)C(=O)OC[C@H]1O[C@@H](Oc2cccc3c2C(=O)c2c(O)cc(C(=O)O)cc2[C@@H]3[C@@H]2c3cc(C(=O)O)cc(O)c3C(=O)c3c(O[C@@H]4O[C@H](CO)[C@@H](O)[C@H](O)[C@H]4O)cccc32)[C@H](O)[C@@H](O)[C@@H]1O [Sennoside F]
ED50 (oral purgative) [1]: 16.1 mg/kg

COc1cc(C(=O)O)ccc1O [Vanillic acid]
half life [2]: about 10.552 hours

C[C@@H]1O[C@@H](O[C@@H]2[C@@H](O)[C@H](OCCc3ccc(O)c(O)c3)O[C@H](CO)[C@H]2OC(=O)/C=C/c2ccc(O)c(O)c2)[C@H](O)[C@H](O)[C@H]1O [acetoside]
suppression of hemolytic plaque forming cells ([6]; oral dose of 100 mg/kg): 18%

O=C(/C=C/c1ccc(O)c(O)c1)O[C@@H]1C[C@](O)(C(=O)O)C[C@@H](O)[C@H]1O [chlorogenic acid]
potency of central stimulation relative to caffeine [7]: 1/6

O=P1(N(CCCl)CCCl)NCCCO1 (centres unmarked) [cyclophosphamide, reference compound]
suppression of hemolytic plaque forming cells ([6]; intraperitoneal dose of 30 mg/kg): 52.5%

CC[C@H](CC[C@@H](C)[C@H]1CC[C@H]2[C@@H]3CC=C4C[C@@H](O)CC[C@]4(C)[C@H]3CC[C@]12C)C(C)C [β-sitosterol]
half life [2]: about 0.966 hours

Emodin monoglucoside
ED50 (oral purgative) [1]: 103.6 mg/kg

jionoside B
suppression of hemolytic plaque forming cells ([6]; oral dose of 100 mg/kg): 36%
